Assays:
[1] = target: T1, TP0037 (TpD-LDH; rTP0037) (Treponema pallidum, UniProt O83080); test: colorimetric NADH-formation kit assay (A575/A605); assay type: biochemical; conditions: co-substrate NAD+, 37°C, 30 min
T1 construct: gene ldhD; full-length, residues 1-331, in pProEX-HTb (vector-derived tag); monomer 39,190 g/mol, homodimer in solution

[2] = target: the molecule itself; test: static light scattering; Dynapro Nanostar, 25°C, storage buffer (20 mM HEPES pH 7.5, 100 mM NaCl, 2 mM BOG), 1.54 mg/ml, three technical replicates; DLS monitored simultaneously

In the case of `C[C@@H](O)C(=O)O` [D-lactate], the “colorimetric NADH-formation kit assay (A575/A605)” value [1] is reported as “monitor the amount of NADH formation in the presence of NAD^+, D-lactate, and the enzyme”.

For `C[C@H](O)C(=O)O` [L-lactate], the “colorimetric NADH-formation kit assay (A575/A605)” value ([1]; very weak substrate) was “only about one-thousandth of the activity was observed when using L-lactate as the substrate”.

B1: TP0037, D-lactate dehydrogenase of Treponema pallidum (enzyme, UniProt O83080 1-331, looked up)
chain: MRCVVFNLREEEAPYVEKWKQSHPGVVVDTYEEPLTAKNKELLKGYEGLVVMQFLAMEDEVYDYMGACKLKVLSTRTAGFDMYNATLLKKHGIRLTNVPSYSPNAIGEYALAAALQLTRHAREIETFVRKRDFRWQKPILSKELRCSRVGILGTGRIGQAAARLFKGVGAQVVGFDPYPNDAAKEWLTYVSMDELLSTSDVISLHMPATKDSHHLINAKTIAQMKDGVYLVNTARGAVIDSQALLDSLDKGKIAGAALDAYEFEGPYIPKDNGNNPITDTVYARLVAHERIIYTPHIAFYTETAIENMVFNSLDACTTVLRGEPCAAEIKL
notes: TP0037 (D-lactate dehydrogenase), Treponema pallidum, amino acid residues 1 to 331, amplified from genomic DNA; called full-length in the results; also called rTP0037; TpD-LDH; source: E. coli BL21(DE3), purified to apparent homogeneity
B1 was tested, and the “stoichiometry N” value [2] was 2.
